Results reported in patent US9206206B2, “Oxidized lipid compounds and uses thereof” (Vascular Biogenics Ltd., priority 2008, dated 2015).
Like-named read-outs stand apart in the source and are kept apart here.

Key:
[1] = system: mouse peritoneal macrophages; assay: In vitro toxicity assay; type: cell-based
Protocol: Thioglycollate-elicited mouse peritoneal macrophages were washed, counted and seeded (2×10^5 to 3×10^5 cells per well in 24-well plates) in triplicate wells in medium containing RPMI-1640, L-glutamine, 10% FBS and antibiotics (penicillin/streptomycin). After a recovery period of 24 hours, the tested compound (or controls) was added to the cell medium at doses of 2, 10, 20, 50, 100 or 150 μg/ml, keeping the added volume equal in all treatments by complementing the volume with solvent.
Following addition of the compounds, the cells were incubated for an additional 24 hours, after which the cells were washed, fixed with a solution of 10% methanol/10% acetic acid and stained with crystal violet (0.4% in 20% ethanol). Cell numbers were measured by determining optical density at 595 nm. Cells incubated with vehicle (PBS with 1% ethanol) were used as a control, to which cell numbers in treated samples were normalized.
Data are presented as mean±standard deviation. Statistical significance relative to vehicle-treated cells was calculated using a student's t-test, with p-values of less than 0.05 being considered as indicating statistical significance.

[2] = system: tyrosine phosphorylation in primary macrophages; assay: Tyrosine phosphorylation assay in primary macrophages (Western blot); type: cell-based, mouse
Protocol: Tyrosine Phosphorylation Assay: Tyrosine phosphorylation in macrophages or bone marrow-derived cells (BMDCs) of mice was assayed. Mouse primary macrophages were isolated from the peritoneum of 7-8 week old C57BL/6 female mice following thioglycollate stimulation. […] Mouse primary bone marrow-derived cells were isolated by flushing bone marrow out of the femur and tibia of female SJL mice using cold RPMI-1640. […] Cells were then washed, resuspended in the same buffer and depleted of B and T cells on a Midi-Macs separation unit through a LD or LS column (Miltenyi Biotech). […] The medium was replaced every other day. […] Proteins with phosphorylated tyrosine were then observed by Western blot, using a monoclonal anti-phosphotyrosine antibody. Western blotting for ERK1/2 or α-tubulin was performed as a control for protein loading.

CCCCCCCCCCCCCCCCOCC(COP(=O)([O-])OCC[N+](C)(C)C)OCCCCC(OCC)OCC (centres unmarked) [diEtAc, 1-hexadecyl-2-(5′,5′-diethoxypentyl)-glycero-3-phosphocholine]
dose at which (significant) toxicity was detected ([1]; mouse, 24 h): ≥ 20 µg/mL | dose at which toxicity was detected in only one experiment ([1]; mouse, 24 h): 10 µg/mL

CCCCCCCCCCCCCCCCCCOCC(COP(=O)([O-])OCC[N+](C)(C)C)OCCCCC(=O)O (centres unmarked) [CI-215, 1-octadecyl-2-(4-carboxy)butyl-glycero-3-phosphocholine]
phosphotyrosine levels ([2]; 10 μg/ml, 10 minutes): induced an increase in phosphotyrosine levels | phosphotyrosine levels ([2]; 20 μg/ml, 10 minutes): caused a decrease in phosphotyrosine levels

CCCCCCCCCCCCCCCCCCCCOCC(COP(=O)(O)OCCN)OCCCCC(=O)O (centres unmarked) [CI-220, 1-eicosanyl-2-(4-carboxy)butyl-glycero-3-phosphoethanolamine]
phosphotyrosine levels ([2]; 10 μg/ml, 10 minutes): little effect, if any | phosphotyrosine levels ([2]; 20 μg/ml, 10 minutes): caused a reduction in phosphotyrosine levels

CCCCCCCCCCCCCCCCSCC(COP(=O)([O-])OCC[N+](C)(C)C)OCCCCC(=O)O (centres unmarked) [1-S-CI-201, 1-S-hexadecyl-2-(4-carboxy)butyl-glycero-3-phosphocholine]
phosphotyrosine levels ([2]; 10 μg/ml, 10 minutes): little effect, if any | phosphotyrosine levels ([2]; 20 μg/ml, 10 minutes): caused a reduction in phosphotyrosine levels

NCCOP(=O)(O)OCC(COCCCCCCCCCCCCCCCC(=O)O)OCCCCC(=O)O (centres unmarked) [CI-214, 1-(15′-carboxy)pentadecyl-2-(4-carboxy)butyl-glycero-3-phosphoethanolamine]
toxicity within the range of tested doses [1]: did not clearly exhibit significant toxicity within the range of tested doses | dose at which a significant decrease in cell number was detected in only one experiment ([1]; mouse, 24 h): 175.5 µM | dose at which toxicity was detected in only one experiment ([1]; mouse, 24 h): 100 µg/mL

CCCCCCCCCCCCCCCCCCCCOCC(COP(=O)([O-])OCC[N+](C)(C)C)OCCCCC(=O)O (centres unmarked) [CI-219, 1-eicosanyl-2-(4-carboxy)butyl-glycero-3-phosphocholine]
phosphotyrosine levels ([2]; 10 μg/ml, 10 minutes): little effect, if any | phosphotyrosine levels ([2]; 20 μg/ml, 10 minutes): caused a reduction in phosphotyrosine levels

1-(2-octyl)dodecyl-2-(4-carboxy)butyl-glycero-3-phosphoethanolamine [VB-222]
phosphotyrosine levels ([2]; 10 μg/ml, 10 minutes): induction of tyrosine phosphorylation | phosphotyrosine levels ([2]; 20 μg/ml, 10 minutes): induction of tyrosine phosphorylation

C[N+](C)(C)CCOP(=O)([O-])OCC(COCCCCCCCCCCCCCCCC(=O)O)OCCCCC(=O)O (centres unmarked) [CI-213, 1-(15′-carboxy)pentadecyl-2-(4-carboxy)butyl-glycero-3-phosphocholine]
dose at which a significant decrease in cell number was detected in only one experiment ([1]; peritoneal macrophages, 24 hours, only one experiment): 163.5 µM | dose at which toxicity was detected in only one experiment ([1]; peritoneal macrophages, 24 hours, only one of two experiments): 100 µg/mL | toxicity within the range of tested doses ([1]; peritoneal macrophages, 24 hours, up to 150 μg/ml): did not clearly exhibit significant toxicity within the range of tested doses

1-(2-octyl)dodecyl-2-(4-carboxy)butyl-glycero-3-phosphocholine [VB-221]
phosphotyrosine levels ([2]; 5 ng/ml (8 μM)): induction of tyrosine phosphorylation | phosphotyrosine levels ([2]; 10 ng/ml (16 μM)): induction of tyrosine phosphorylation | phosphotyrosine levels ([2]; 20 ng/ml): induction of tyrosine phosphorylation

CCCCCCCCCCCCCCCCOCC(COP(=O)([O-])OCC[N+](C)(C)C)OCCC(=O)O (centres unmarked) [CI-217, 1-Hexadecyl-2-(2-carboxy)ethyl-glycero-3-phosphocholine]
phosphotyrosine levels ([2]; 10 μg/ml, 10 minutes): little effect | phosphotyrosine levels ([2]; 20 μg/ml, 10 minutes): caused a reduction in phosphotyrosine levels

CCCCCCCCCCCCCCCCSCC(COP(=O)(O)OCCN)OCCCCC(=O)O (centres unmarked) [1-S-CI-202, 1-S-hexadecyl-2-(4-carboxy)butyl-glycero-3-phosphoethanolamine]
phosphotyrosine levels ([2]; 10 μg/ml, 10 minutes): caused an increase in phosphotyrosine levels | phosphotyrosine levels ([2]; 20 μg/ml, 10 minutes): caused a reduction in phosphotyrosine levels

CCCCCCCCCCCCCCCCOCC(COP(=O)(O)OCC(N)C(=O)O)OCCCCC(=O)O (centres unmarked) [VB-223, 1-hexadecyl-2-(4-carboxy)butyl-glycero-3-phosphoserine]
phosphotyrosine levels ([2]; 1 μg/ml, 10 minutes): perhaps also | phosphotyrosine levels ([2]; 5 μg/ml, 10 minutes): induction of tyrosine phosphorylation | phosphotyrosine levels ([2]; 10 μg/ml, 10 minutes): induction of tyrosine phosphorylation | phosphotyrosine levels ([2]; 20 μg/ml, 10 minutes): induction of tyrosine phosphorylation
